According to patent US10251395B2, “Substituted furano-/thienocycloalkylamino-2-pyrimidine derivatives and use thereof for controlling undesired plant growth” (Bayer CropScience Aktiengesellschaft, priority 2015, dated 2019):

Assays:
Assay type in all cases: in vivo
Matricaria inodora = assay: Pre-emergence herbicidal effect; conditions: scored visually after 3 weeks
Description: (§1) Seeds of monocotyledonous and dicotyledonous weed plants and crop plants are laid out in wood-fiber pots in sandy loam and covered with soil. The compounds of the invention, formulated in the form of wettable powders (WP) or as emulsion concentrates (EC), are then applied to the surface of the covering soil as aqueous suspension or emulsion at a water application rate equating to 600 to 800 L/ha with addition of 0.2% wetting agent.
(§2) After the treatment, the pots are placed in a greenhouse and kept under good growth conditions for the trial plants. The damage to the test plants is scored visually after a test period of 3 weeks by comparison with untreated controls (herbicidal activity in percent (%): 100% activity=the plants have died, 0% activity=like control plants).
(§3) • ABUTH: Abutilon theophrasti ALOMY: Alopecurus myosuroides • AMARE: Amaranthus retroflexus AVEFA: Avena fatua • CYPES: Cyperus esculentus ECHCG: Echinochloa crus-galli • LOLMU: Lolium multiflorum MATIN: Matricaria inodora • PHBPU: Ipomoea purpurea POLCO: Polygonum convolvulus • SETVI: Setaria viridis STEME: Stellaria media • VERPE: Veronica persica VIOTR: Viola tricolor

Alopecurus myosuroides = assay: Pre-emergence herbicidal effect; conditions: scored visually after 3 weeks
Description: as §1, §2, §3

Amaranthus retroflexus [1] = assay: Pre-emergence herbicidal effect; conditions: scored visually after 3 weeks
Description: as §1, §2, §3

Stellaria media [2] = assay: Pre-emergence herbicidal effect; conditions: scored visually after 3 weeks
Description: as §1, §2, §3

Setaria viridis [3] = assay: Pre-emergence herbicidal effect; conditions: scored visually after 3 weeks
Description: as §1, §2, §3

Veronica persica [4] = assay: Pre-emergence herbicidal effect; conditions: scored visually after 3 weeks
Description: as §1, §2, §3

Viola tricolor [5] = assay: Pre-emergence herbicidal effect; conditions: scored visually after 3 weeks
Description: as §1, §2, §3

Stellaria media [6] = assay: Post-emergence herbicidal effect; conditions: assessed visually after about 3 weeks vs untreated controls
Description: (§4) • ABUTH: Abutilon theophrasti ALOMY: Alopecurus myosuroides • AMARE: Amaranthus retroflexus AVEFA: Avena fatua • CYPES: Cyperus esculentus ECHCG: Echinochloa crus-galli • LOLMU: Lolium multiflorum MATIN: Matricaria inodora • PHBPU: Ipomoea purpurea POLCO: Polygonum convolvulus • SETVI: Setaria viridis STEME: Stellaria media • VERPE: Veronica persica VIOTR: Viola tricolor Seeds of monocotyledonous and dicotyledonous weed and crop plants are laid out in sandy loam in wood-fiber pots, covered with soil and cultivated in a greenhouse under good growth conditions. 2 to 3 weeks after sowing, the test plants are treated at the one-leaf stage. The compounds of the invention, formulated in the form of wettable powders (WP) or as emulsion concentrates (EC), are then sprayed onto the green parts of the plants as aqueous suspension or emulsion at a water application rate equating to 600 to 800 L/ha with addition of 0.2% wetting agent. After the test plants have been left to stand in the greenhouse under optimal growth conditions for about 3 weeks, the action of the preparations is assessed visually in comparison to untreated controls (herbicidal action in percent (%): 100% activity=the plants have died, 0% activity=like control plants).

Setaria viridis [7] = assay: Post-emergence herbicidal effect; conditions: assessed visually after about 3 weeks vs untreated controls
Description: as §4

Veronica persica [8] = assay: Post-emergence herbicidal effect; conditions: assessed visually after about 3 weeks vs untreated controls
Description: as §4

Viola tricolor [9] = assay: Post-emergence herbicidal effect; conditions: assessed visually after about 3 weeks vs untreated controls
Description: as §4

Lolium multiflorum = assay: Pre-emergence herbicidal effect; conditions: Dosage 320 g/ha, scored visually after 3 weeks
Description: as §1, §2, §3

Polygonum convolvulus = assay: Pre-emergence herbicidal effect; conditions: scored visually after 3 weeks
Description: as §1, §2, §3

Abutilon theophrasti = assay: Post-emergence herbicidal effect; conditions: assessed visually after about 3 weeks vs untreated controls
Description: as §4

Amaranthus retroflexus [10] = assay: Post-emergence herbicidal effect; conditions: assessed visually after about 3 weeks vs untreated controls
Description: as §4

Echinochloa crus-galli [11] = assay: Pre-emergence herbicidal effect; conditions: scored visually after 3 weeks
Description: as §1, §2, §3

Ipomoea purpurea = assay: Post-emergence herbicidal effect; conditions: 320 g/ha, assessed visually after about 3 weeks vs untreated controls
Description: as §4

Echinochloa crus-galli [12] = assay: Post-emergence herbicidal effect; conditions: 320 g/ha, assessed visually after about 3 weeks vs untreated controls
Description: as §4

Structure (SMILES): CC(=O)c1c(N)nc(NC2CCCc3sc(C)cc32)nc1C(F)(F)F (racemic) [compound 268]
- MATIN pre-emergence efficacy (herbicidal activity) (Matricaria inodora; Dosage 320 g/ha): 90%
- ALOMY pre-emergence efficacy (herbicidal activity) (Alopecurus myosuroides; Dosage 80 g/ha): 80%
- ALOMY pre-emergence efficacy (herbicidal activity) (Alopecurus myosuroides; Dosage 320 g/ha): 90%
- AMARE pre-emergence efficacy (herbicidal activity) (Amaranthus retroflexus [1]; Dosage 80 g/ha): 100%
- AMARE pre-emergence efficacy (herbicidal activity) (Amaranthus retroflexus [1]; Dosage 320 g/ha): 100%
- STEME pre-emergence efficacy (herbicidal activity) (Stellaria media [2]; Dosage 80 g/ha): 90%
- STEME pre-emergence efficacy (herbicidal activity) (Stellaria media [2]; Dosage 320 g/ha): 100%
- SETVI pre-emergence efficacy (herbicidal activity) (Setaria viridis [3]; Dosage 80 g/ha): 90%
- SETVI pre-emergence efficacy (herbicidal activity) (Setaria viridis [3]; Dosage 320 g/ha): 90%
- VERPE pre-emergence efficacy (herbicidal activity) (Veronica persica [4]; Dosage 80 g/ha): 100%
- VERPE pre-emergence efficacy (herbicidal activity) (Veronica persica [4]; Dosage 320 g/ha): 100%
- VIOTR pre-emergence efficacy (herbicidal activity) (Viola tricolor [5]; Dosage 80 g/ha): 80%
- VIOTR pre-emergence efficacy (herbicidal activity) (Viola tricolor [5]; Dosage 320 g/ha): 90%
- post-emergence efficacy STEME (Stellaria media [6]; 80 g/ha): 100%
- post-emergence efficacy STEME (Stellaria media [6]; 320 g/ha): 100%
- post-emergence efficacy SETVI (Setaria viridis [7]; 320 g/ha): 80%
- post-emergence efficacy VERPE (Veronica persica [8]; 80 g/ha): 80%
- post-emergence efficacy VERPE (Veronica persica [8]; 320 g/ha): 80%
- post-emergence efficacy VIOTR (Viola tricolor [9]; 80 g/ha): 80%
- post-emergence efficacy VIOTR (Viola tricolor [9]; 320 g/ha): 80%

Structure (SMILES): Cc1cc2c(s1)CCCC2Nc1ncc(-c2cccc(C(F)(F)F)c2)c(N)n1 (racemic) [compound 294]
- MATIN pre-emergence efficacy (herbicidal activity) (Matricaria inodora; Dosage 80 g/ha): 90%
- MATIN pre-emergence efficacy (herbicidal activity) (Matricaria inodora; Dosage 320 g/ha): 100%
- LOLMU pre-emergence efficacy (herbicidal activity) (Lolium multiflorum): 100%
- ALOMY pre-emergence efficacy (herbicidal activity) (Alopecurus myosuroides; Dosage 80 g/ha): 70%
- ALOMY pre-emergence efficacy (herbicidal activity) (Alopecurus myosuroides; Dosage 320 g/ha): 100%
- POLCO pre-emergence efficacy (herbicidal activity) (Polygonum convolvulus; Dosage 80 g/ha): 70%
- POLCO pre-emergence efficacy (herbicidal activity) (Polygonum convolvulus; Dosage 320 g/ha): 80%
- STEME pre-emergence efficacy (herbicidal activity) (Stellaria media [2]; Dosage 80 g/ha): 100%
- STEME pre-emergence efficacy (herbicidal activity) (Stellaria media [2]; Dosage 320 g/ha): 100%
- VERPE pre-emergence efficacy (herbicidal activity) (Veronica persica [4]; Dosage 80 g/ha): 100%
- VERPE pre-emergence efficacy (herbicidal activity) (Veronica persica [4]; Dosage 320 g/ha): 100%
- VIOTR pre-emergence efficacy (herbicidal activity) (Viola tricolor [5]; Dosage 80 g/ha): 80%
- VIOTR pre-emergence efficacy (herbicidal activity) (Viola tricolor [5]; Dosage 320 g/ha): 90%
- post-emergence efficacy ABUTH (Abutilon theophrasti; 80 g/ha): 60%
- post-emergence efficacy ABUTH (Abutilon theophrasti; 320 g/ha): 70%
- post-emergence efficacy AMARE (Amaranthus retroflexus [10]; 80 g/ha): 70%
- post-emergence efficacy AMARE (Amaranthus retroflexus [10]; 320 g/ha): 70%
- post-emergence efficacy VERPE (Veronica persica [8]; 320 g/ha): 90%

Structure (SMILES): CS(=O)(=O)c1cnc(NC2CCc3cc(Cl)sc32)nc1N (racemic) [compound 50]
- MATIN pre-emergence efficacy (herbicidal activity) (Matricaria inodora; Dosage 80 g/ha): 90%
- MATIN pre-emergence efficacy (herbicidal activity) (Matricaria inodora; Dosage 320 g/ha): 90%
- LOLMU pre-emergence efficacy (herbicidal activity) (Lolium multiflorum): 80%
- POLCO pre-emergence efficacy (herbicidal activity) (Polygonum convolvulus; Dosage 320 g/ha): 100%
- AMARE pre-emergence efficacy (herbicidal activity) (Amaranthus retroflexus [1]; Dosage 80 g/ha): 100%
- AMARE pre-emergence efficacy (herbicidal activity) (Amaranthus retroflexus [1]; Dosage 320 g/ha): 100%
- ECHCG pre-emergence efficacy (herbicidal activity) (Echinochloa crus-galli [11]; Dosage 80 g/ha): 90%
- ECHCG pre-emergence efficacy (herbicidal activity) (Echinochloa crus-galli [11]; Dosage 320 g/ha): 100%
- STEME pre-emergence efficacy (herbicidal activity) (Stellaria media [2]; Dosage 80 g/ha): 100%
- STEME pre-emergence efficacy (herbicidal activity) (Stellaria media [2]; Dosage 320 g/ha): 100%
- SETVI pre-emergence efficacy (herbicidal activity) (Setaria viridis [3]; Dosage 320 g/ha): 100%
- VERPE pre-emergence efficacy (herbicidal activity) (Veronica persica [4]; Dosage 80 g/ha): 100%
- VERPE pre-emergence efficacy (herbicidal activity) (Veronica persica [4]; Dosage 320 g/ha): 100%
- VIOTR pre-emergence efficacy (herbicidal activity) (Viola tricolor [5]; Dosage 80 g/ha): 80%
- VIOTR pre-emergence efficacy (herbicidal activity) (Viola tricolor [5]; Dosage 320 g/ha): 100%
- post-emergence efficacy AMARE (Amaranthus retroflexus [10]; 80 g/ha): 80%
- post-emergence efficacy AMARE (Amaranthus retroflexus [10]; 320 g/ha): 90%
- post-emergence efficacy STEME (Stellaria media [6]; 320 g/ha): 100%
- post-emergence efficacy VERPE (Veronica persica [8]; 80 g/ha): 80%
- post-emergence efficacy VERPE (Veronica persica [8]; 320 g/ha): 90%
- post-emergence efficacy VIOTR (Viola tricolor [9]; 80 g/ha): 90%
- post-emergence efficacy VIOTR (Viola tricolor [9]; 320 g/ha): 100%

Structure (SMILES): Nc1nc(NC2CCCc3occc32)ncc1C(F)(F)F (racemic) [compound 7]
- MATIN pre-emergence efficacy (herbicidal activity) (Matricaria inodora; Dosage 320 g/ha): 90%
- AMARE pre-emergence efficacy (herbicidal activity) (Amaranthus retroflexus [1]; Dosage 320 g/ha): 100%
- STEME pre-emergence efficacy (herbicidal activity) (Stellaria media [2]; Dosage 80 g/ha): 80%
- STEME pre-emergence efficacy (herbicidal activity) (Stellaria media [2]; Dosage 320 g/ha): 90%
- VIOTR pre-emergence efficacy (herbicidal activity) (Viola tricolor [5]; Dosage 320 g/ha): 100%
- post-emergence efficacy ABUTH (Abutilon theophrasti; 320 g/ha): 40%
- post-emergence efficacy STEME (Stellaria media [6]; 320 g/ha): 80%

Structure (SMILES): Cc1cc2c(s1)CCCC2Nc1nc(N)c(S(C)(=O)=O)c(C(F)(F)F)n1 (racemic) [compound 298]
- MATIN pre-emergence efficacy (herbicidal activity) (Matricaria inodora; Dosage 320 g/ha): 100%
- ALOMY pre-emergence efficacy (herbicidal activity) (Alopecurus myosuroides; Dosage 320 g/ha): 90%
- POLCO pre-emergence efficacy (herbicidal activity) (Polygonum convolvulus; Dosage 320 g/ha): 50%
- AMARE pre-emergence efficacy (herbicidal activity) (Amaranthus retroflexus [1]; Dosage 320 g/ha): 100%
- STEME pre-emergence efficacy (herbicidal activity) (Stellaria media [2]; Dosage 80 g/ha): 100%
- STEME pre-emergence efficacy (herbicidal activity) (Stellaria media [2]; Dosage 320 g/ha): 100%
- VERPE pre-emergence efficacy (herbicidal activity) (Veronica persica [4]; Dosage 80 g/ha): 100%
- VERPE pre-emergence efficacy (herbicidal activity) (Veronica persica [4]; Dosage 320 g/ha): 100%
- VIOTR pre-emergence efficacy (herbicidal activity) (Viola tricolor [5]; Dosage 80 g/ha): 90%
- VIOTR pre-emergence efficacy (herbicidal activity) (Viola tricolor [5]; Dosage 320 g/ha): 100%
- post-emergence efficacy AMARE (Amaranthus retroflexus [10]; 80 g/ha): 70%
- post-emergence efficacy AMARE (Amaranthus retroflexus [10]; 320 g/ha): 90%
- post-emergence efficacy VIOTR (Viola tricolor [9]; 80 g/ha): 80%
- post-emergence efficacy VIOTR (Viola tricolor [9]; 320 g/ha): 80%

Structure (SMILES): Nc1nc(NC2CCc3cc(Cl)sc32)ncc1C(F)(F)F (racemic) [compound 48]
- MATIN pre-emergence efficacy (herbicidal activity) (Matricaria inodora; Dosage 80 g/ha): 80%
- MATIN pre-emergence efficacy (herbicidal activity) (Matricaria inodora; Dosage 320 g/ha): 90%
- ALOMY pre-emergence efficacy (herbicidal activity) (Alopecurus myosuroides; Dosage 320 g/ha): 80%
- AMARE pre-emergence efficacy (herbicidal activity) (Amaranthus retroflexus [1]; Dosage 320 g/ha): 100%
- ECHCG pre-emergence efficacy (herbicidal activity) (Echinochloa crus-galli [11]; Dosage 80 g/ha): 100%
- ECHCG pre-emergence efficacy (herbicidal activity) (Echinochloa crus-galli [11]; Dosage 320 g/ha): 100%
- STEME pre-emergence efficacy (herbicidal activity) (Stellaria media [2]; Dosage 320 g/ha): 100%
- SETVI pre-emergence efficacy (herbicidal activity) (Setaria viridis [3]; Dosage 320 g/ha): 80%
- VERPE pre-emergence efficacy (herbicidal activity) (Veronica persica [4]; Dosage 80 g/ha): 100%
- VERPE pre-emergence efficacy (herbicidal activity) (Veronica persica [4]; Dosage 320 g/ha): 100%
- VIOTR pre-emergence efficacy (herbicidal activity) (Viola tricolor [5]; Dosage 80 g/ha): 100%
- VIOTR pre-emergence efficacy (herbicidal activity) (Viola tricolor [5]; Dosage 320 g/ha): 100%
- post-emergence efficacy PHBPU (Ipomoea purpurea): 80%
- post-emergence efficacy AMARE (Amaranthus retroflexus [10]; 80 g/ha): 80%
- post-emergence efficacy AMARE (Amaranthus retroflexus [10]; 320 g/ha): 90%
- post-emergence efficacy ECHCG (Echinochloa crus-galli [12]): 100%
- post-emergence efficacy STEME (Stellaria media [6]; 320 g/ha): 90%
- post-emergence efficacy SETVI (Setaria viridis [7]; 80 g/ha): 80%
- post-emergence efficacy SETVI (Setaria viridis [7]; 320 g/ha): 90%
- post-emergence efficacy VERPE (Veronica persica [8]; 320 g/ha): 80%
- post-emergence efficacy VIOTR (Viola tricolor [9]; 80 g/ha): 80%
- post-emergence efficacy VIOTR (Viola tricolor [9]; 320 g/ha): 90%
